Reference: ChEMBL document CHEMBL6083192, “Discovery of 1,2,4-Triazole-3-thione Derivatives as Potent and Selective DCN1 Inhibitors for Pathological Cardiac Fibrosis and Remodeling” (J Med Chem, 2024)
pIC50, pKi: −log10 of the molar value.

Legend:
[1] = Inhibition of GST-tagged DCN5 (unknown origin)/acetylated-biotin tagged UBC12 (unknown origin) protein-protein interaction assessed as inhibition constant incubated for 30 mins by HTRF assay
[2] = Inhibition of GST-tagged DCN2 (unknown origin)/acetylated-biotin tagged UBC12 (unknown origin) protein-protein interaction assessed as inhibition constant incubated for 30 mins by HTRF assay
[3] = Inhibition of GST-tagged DCN4 (unknown origin)/acetylated-biotin tagged UBC12 (unknown origin) protein-protein interaction assessed as inhibition constant incubated for 30 mins by HTRF assay
[4] = Inhibition of GST-tagged DCN3 (unknown origin)/acetylated-biotin tagged UBC12 (unknown origin) protein-protein interaction assessed as inhibition constant incubated for 30 mins by HTRF assay
DCN1-like protein 1 = DCN1-like protein 1 (Homo sapiens, UniProt Q96GG9); assay: Inhibition of DCN1 (unknown origin) assessed as inhibition constant
Sequence of DCN1-like protein 1 (Q96GG9 whole entry): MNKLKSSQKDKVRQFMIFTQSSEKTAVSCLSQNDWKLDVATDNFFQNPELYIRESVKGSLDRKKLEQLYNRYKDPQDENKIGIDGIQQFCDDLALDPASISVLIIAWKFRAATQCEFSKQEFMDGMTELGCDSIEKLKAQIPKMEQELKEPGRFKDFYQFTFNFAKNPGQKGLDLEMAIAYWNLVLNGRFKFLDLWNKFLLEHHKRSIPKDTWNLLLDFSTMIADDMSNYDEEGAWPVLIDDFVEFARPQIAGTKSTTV

[5] = biological target: DCN1-like protein 1/NEDD8-conjugating enzyme Ubc12 (Homo sapiens, UniProt Q96GG9); assay: Inhibition of GST-tagged DCN1 (unknown origin)/acetylated-biotin tagged UBC12 (unknown origin) protein-protein interaction incubated for 30 mins by HTRF assay
Sequence of DCN1-like protein 1/NEDD8-conjugating enzyme Ubc12 (Q96GG9 whole entry): as above
Sequence of DCN1-like protein 1/NEDD8-conjugating enzyme Ubc12 (P61081 whole entry, further chain): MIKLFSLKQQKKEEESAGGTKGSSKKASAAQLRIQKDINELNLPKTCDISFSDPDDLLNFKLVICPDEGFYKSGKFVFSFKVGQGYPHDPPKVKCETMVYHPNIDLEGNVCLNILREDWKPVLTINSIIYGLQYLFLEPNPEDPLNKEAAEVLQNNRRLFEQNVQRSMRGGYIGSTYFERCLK

[6] = Hepatotoxicity in human L02 cells assessed as reduction in cell viability by MTT assay

| pIC50 [5] | Structure (SMILES) | further results |
| --- | --- | --- |
| 7.82 | O=C(CCn1c(-c2ccccc2)n[nH]c1=S)Nc1cccc(C(F)(F)F)c1 | IC50 [6]: > 100 µg/mL |
| 7.60 | O=C(CCn1c(-c2ccc(Br)cc2)n[nH]c1=S)Nc1cccc(C(F)(F)F)c1 |  |
| 7.00 | O=C(CCn1c(-c2ccc(O)cc2)n[nH]c1=S)Nc1ccccc1C(F)(F)F |  |
| 7.59 | O=C(CCn1c(-c2ccc(Cl)cc2)n[nH]c1=S)Nc1ccc(Br)cc1 |  |
| 7.35 | O=C(CCCn1c(-c2ccc(Cl)cc2)n[nH]c1=S)Nc1cccc(C(F)(F)F)c1 |  |
| 6.89 | O=C(CCn1c(-c2ccc(Cl)cc2)n[nH]c1=S)Nc1ccc(F)cc1 |  |
| 6.66 | O=C(CCn1c(-c2ccncc2)n[nH]c1=S)Nc1cccc(C(F)(F)F)c1 |  |
| 7.04 | COc1ccc(NC(=O)CCn2c(-c3ccc(Cl)cc3)n[nH]c2=S)cc1 |  |
| < 4.70 | O=C(CCn1c(-c2ccc(Cl)cc2)n[nH]c1=S)Nc1ccc(O)cc1 |  |
| 7.34 | O=C(CCn1c(-c2ccc([N+](=O)[O-])cc2)n[nH]c1=S)Nc1cccc(C(F)(F)F)c1 |  |
| 7.85 | COc1ccc(-c2n[nH]c(=S)n2CCC(=O)Nc2cccc(C(F)(F)F)c2)cc1 | IC50 [6]: > 100 µg/mL |
| 7.98 | O=C(CCn1c(-c2ccc(O)cc2)n[nH]c1=S)Nc1ccc(C(F)(F)F)cc1 | IC50 [6]: > 100 µg/mL |
| 7.72 | O=C(CCn1c(-c2ccc(F)cc2)n[nH]c1=S)Nc1cccc(C(F)(F)F)c1 | IC50 [6]: > 100 µg/mL |
| 7.30 | Cc1ccc(NC(=O)CCn2c(-c3ccc(Cl)cc3)n[nH]c2=S)cc1 |  |
| 7.16 | O=C(CCn1c(-c2ccc(Cl)cc2)n[nH]c1=S)Nc1ccc(Cl)cc1 |  |
| 7.37 | O=C(CCn1c(-c2ccc(O)cc2)n[nH]c1=S)NCc1cccc(C(F)(F)F)c1 |  |
| 8.06 | CC(C)(C)c1ccc(NC(=O)CCn2c(-c3ccc(Cl)cc3)n[nH]c2=S)cc1 | IC50 [6]: > 100 µg/mL |
| 8.11 | CC(C)(C)c1ccc(-c2n[nH]c(=S)n2CCC(=O)Nc2cccc(C(F)(F)F)c2)cc1 |  |
| 7.89 | CC(C)c1ccc(NC(=O)CCn2c(-c3ccc(Cl)cc3)n[nH]c2=S)cc1 | IC50 [6]: > 100 µg/mL |
| 8.03 | Cc1ccc(-c2n[nH]c(=S)n2CCC(=O)Nc2cccc(C(F)(F)F)c2)cc1 | IC50 [6]: > 100 µg/mL |

More lines, now with the values behind:

| Structure (SMILES) | pIC50 [5] | further results |
| --- | --- | --- |
| C#CCSc1nc(Sc2nccs2)c(C#N)c(-c2ccc(C)cc2)n1 |  | pKi [1]: 5.67; pKi [2]: 7.18; pKi [3]: 6.09; pKi [4]: 6.23 |
| COc1cc(-c2nc(SCc3ccc(Cl)cc3)nc(Sc3nnnn3C)c2C#N)cc(OC)c1OC |  | pKi [1]: < 4.70; pKi [2]: 7.73; pKi [3]: < 4.70; pKi [4]: 6.41 |
| C=C(CN(C)C)C(=O)NC[C@@H](NC(=O)[C@H](Cc1nc2ccc(C(C)C)cc2s1)NC(=O)CC)C1CCCCC1 |  | pKi (DCN1-like protein 1): > 9.00 |
| COc1ccc(-c2n[nH]c(=S)n2CCC(=O)Nc2ccc(OC)cc2OC)cc1 | 6.08 |  |
| CC(C)(C)c1ccc(O)c(NC(=O)CCn2c(-c3ccc(Cl)cc3)n[nH]c2=S)c1 | 6.71 |  |
| O=C(CCn1c(SCC(=O)Nc2ccccc2)nnc1-c1ccc(Cl)cc1)Nc1cccc(C(F)(F)F)c1 | < 4.70 |  |
| O=C(CCn1c(-c2ccc(Cl)cc2)n[nH]c1=O)Nc1cccc(C(F)(F)F)c1 | 5.12 |  |
| O=C(CCn1c(-c2ccc(Cl)cc2)n[nH]c1=S)Nc1cccc(Br)c1 | 7.65 |  |
| O=C(CCn1cnnc1-c1ccc(Cl)cc1)Nc1cccc(C(F)(F)F)c1 | 4.80 |  |
| O=C(CCn1c(-c2ccccc2Cl)n[nH]c1=S)Nc1cccc(C(F)(F)F)c1 | 7.54 |  |
| O=C(CCn1c(-c2ccc(Cl)cc2)n[nH]c1=S)Nc1cc(-c2ccccc2)ccc1O | 6.48 |  |
| Cc1cccc2[nH]c(CSc3nnc(-c4ccc(Cl)cc4)n3CCC(=O)Nc3cccc(C(F)(F)F)c3)nc12 | 5.15 |  |
| COc1ccc(CNC(=O)CCn2c(-c3ccc(OC)cc3)n[nH]c2=S)cc1 | < 4.70 |  |
| O=C(CSc1nnc(-c2ccc(Cl)cc2)n1CCC(=O)Nc1cccc(C(F)(F)F)c1)NC(=O)Nc1ccccc1 | < 4.70 |  |
| COc1ccc(-c2n[nH]c(=S)n2CCC(=O)Nc2cc(C)ccc2O)cc1 | 5.84 |  |
| COc1cccc(NC(=O)CCn2c(-c3ccc(Cl)cc3)n[nH]c2=S)c1 | 7.11 |  |
| O=C(CCn1c(-c2ccc(Cl)cc2)n[nH]c1=S)NCc1ccoc1 | < 4.70 |  |
| Cc1ccc(O)c(NC(=O)CCn2c(-c3ccc(Cl)cc3)n[nH]c2=S)c1 | 6.19 |  |
| COc1ccc(-c2n[nH]c(=S)n2CCC(=O)Nc2cc(C#N)[nH]n2)cc1 | < 4.70 |  |
| C#CCNC(=O)CCn1c(-c2ccc(OC)cc2)n[nH]c1=S | < 4.70 |  |

| Structure (SMILES) | pIC50 [5] | further results |
| --- | --- | --- |
| O=C(CCn1c(-c2ccc(Cl)cc2)n[nH]c1=S)NCCc1c[nH]c2ccccc12 | 5.66 |  |
| CSc1nnc(-c2ccc(Cl)cc2)n1CCC(=O)Nc1cccc(C(F)(F)F)c1 | 5.79 |  |
| COc1ccc(-c2n[nH]c(=S)n2CCC(=O)Nc2ccc(Br)cc2O)cc1 | 6.68 |  |
| N#Cc1cc(NC(=O)CCn2c(-c3ccc(Cl)cc3)n[nH]c2=S)n[nH]1 | < 4.70 |  |
| O=C(CCn1c(-c2ccc(Cl)cc2Br)n[nH]c1=S)Nc1cccc(C(F)(F)F)c1 | 8.27 |  |
| COc1ccc(CNC(=O)CCn2c(-c3ccc(Cl)cc3)n[nH]c2=S)cc1 | < 4.70 |  |
| COc1ccc(-c2n[nH]c(=S)n2CCC(=O)NCCc2c[nH]c3ccccc23)cc1 | 5.64 |  |
| CC(C)c1cccc(NC(=O)CCn2c(-c3ccc(Cl)cc3)n[nH]c2=S)c1 | 7.81 | IC50 [6]: > 100 µg/mL |
| C#CCNC(=O)CCn1c(-c2ccc(Cl)cc2)n[nH]c1=S | < 4.70 |  |
| COc1ccc(CSc2nnc(-c3ccc(Cl)cc3)n2CCC(=O)Nc2cccc(C(F)(F)F)c2)cc1 | 5.39 |  |
| CCCCc1ccc(NC(=O)CCn2c(-c3ccc(Cl)cc3)n[nH]c2=S)cc1 | 7.91 | IC50 [6]: > 100 µg/mL |
| O=C(CCn1c(-c2c[nH]c3ccccc23)n[nH]c1=S)Nc1cccc(C(F)(F)F)c1 | 8.03 | IC50 [6]: > 100 µg/mL |
| COc1ccc(-c2n[nH]c(=S)n2CCC(=O)Nc2cc(C(C)(C)C)ccc2O)cc1 | 5.63 |  |
| O=C(Cn1c(-c2ccc(Cl)cc2)n[nH]c1=S)Nc1cccc(C(F)(F)F)c1 | 7.56 |  |
| O=C(CCn1c(-c2ccc(Cl)cc2)n[nH]c1=S)Nc1ccccc1 | 6.26 |  |
| CCSc1nnc(-c2ccc(Cl)cc2)n1CCC(=O)Nc1cccc(C(F)(F)F)c1 | 5.66 |  |
| COc1ccc(-c2n[nH]c(=S)n2CCC(=O)NCc2ccoc2)cc1 | < 4.70 |  |
| COc1ccc(-c2n[nH]c(=S)n2CCC(=O)Nc2cc(-c3ccccc3)ccc2O)cc1 | 5.95 |  |
| COc1ccccc1NC(=O)CCn1c(-c2ccc(Cl)cc2)n[nH]c1=S | 6.05 |  |
| O=C(CCn1c(-c2cccc(Cl)c2)n[nH]c1=S)Nc1cccc(C(F)(F)F)c1 | 7.70 | IC50 [6]: > 100 µg/mL |
